Source: PubChem BioAssay (NCI)
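Assay format: 96-well plates, 48-hour exposure. Definition used: TGI = concentration required for complete inhibition of growth.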

Columns and labels:
Assay in all cases: NCI tumour cell line growth inhibition, 48 h
DLD-1 colon = test system: DLD-1 colon
KM20L2 colon = test system: KM20L2 colon
NCI-H522 lung = test system: NCI-H522 lung
M19-MEL melanoma = test system: M19-MEL melanoma
DMS 273 small cell lung = test system: DMS 273 small cell lung
DMS 114 small cell lung = test system: DMS 114 small cell lung
LXFL 529 NSCLC = test system: LXFL 529 NSCLC
SNB-78 CNS = test system: SNB-78 CNS
U251 CNS = test system: U251 CNS
XF 498 CNS = test system: XF 498 CNS
SK-MEL-2 melanoma = test system: SK-MEL-2 melanoma
HOP-62 NSCLC = test system: HOP-62 NSCLC
RXF-631 renal = test system: RXF-631 renal
HOP-18 NSCLC = test system: HOP-18 NSCLC

| SMILES | TGI (DLD-1 colon) [µM] | TGI (KM20L2 colon) [µM] | TGI (NCI-H522 lung) [µM] | TGI (M19-MEL melanoma) [µM] | TGI (DMS 273 small cell lung) [µM] | TGI (DMS 114 small cell lung) [µM] | TGI (LXFL 529 NSCLC) [µM] | TGI (SNB-78 CNS) [µM] | TGI (U251 CNS) [µM] | TGI (XF 498 CNS) [µM] | TGI (SK-MEL-2 melanoma) [µM] | TGI (HOP-62 NSCLC) [µM] | TGI (RXF-631 renal) [µM] | TGI (HOP-18 NSCLC) [µM] |
| --- | --- | --- | --- | --- | --- | --- | --- | --- | --- | --- | --- | --- | --- | --- |
| C#CCNC(=O)NC(CCCNC(=O)OCc1ccccc1)C(=O)OCc1ccccc1 (centres undefined) | > 100 | > 100 | 62.7 | > 100 | > 100 | > 100 | > 100 | > 100 | > 100 | 26.9 | > 100 | > 100 | > 100 | – |
| COC1O[C@H]2CCN(C(=O)OCc3ccccc3)[C@H]2[C@H]1OCc1ccccc1 (some centres undefined) | > 100 | > 100 | > 100 | > 100 | > 100 | > 86.2 | > 100 | > 100 | > 100 | > 100 | > 100 | > 100 | – | > 100 |
| CCOC(=O)C1=C(C)N(c2ccccc2)C2=C(C(=O)N(c3ccccc3)C2c2ccccc2)C1c1ccccc1 (centres undefined) | > 100 | > 100 | > 100 | > 100 | > 100 | > 100 | > 100 | > 100 | > 100 | > 100 | > 100 | > 100 | > 100 | > 100 |
| Cc1cc(=O)cc2sc3c(C)cccc3nc1-2 | 46.1 | – | > 100 | 36.5 | > 100 | – | 32.9 | > 100 | > 100 | – | 43.9 | > 100 | > 100 | > 100 |
| Cc1c(Cl)cccc1NC(=O)C(=O)C1C(=O)CC(C)(C)CC1=O | > 100 | > 100 | > 100 | > 100 | > 100 | > 100 | > 100 | > 100 | > 100 | – | > 100 | > 100 | > 100 | > 100 |
| O=C(/C=C/c1ccccc1)/C=C/c1ccccc1O | 36.9 | 34.8 | 33.3 | 33.6 | – | 35.3 | 33.7 | > 100 | 32.7 | > 100 | > 100 | > 100 | – | 1.76 |
| COC(=O)C(C#N)=C1c2ccccc2Oc2ccccc21 | > 100 | > 100 | 77.3 | > 100 | > 100 | > 100 | 94.8 | > 100 | – | > 100 | > 100 | > 100 | – | – |
| COc1ccc2nc(-c3ccc(OCc4ccccc4)cc3)ccc2c1 | > 100 | > 100 | > 100 | > 100 | – | > 100 | > 100 | > 100 | – | > 100 | – | > 100 | – | > 100 |
| Cc1cc2c(cc1C)[n+](=O)c(C(=O)C/C(=N/NC(=O)c1ccccc1O)C(=O)Nc1ccccc1C(C)C)c(C)n2[O-] | > 100 | > 100 | > 100 | > 100 | > 100 | > 100 | > 100 | > 100 | > 100 | – | > 100 | > 100 | > 100 | > 100 |
| C=CC(=O)c1ccc2c(c1)OCCOCCOCCOCCOCCO2 | 30.1 | > 100 | 24.7 | 32.2 | 29.1 | 41 | 30.8 | 35.2 | > 100 | 28.7 | > 79.7 | > 100 | – | 30.2 |
| O=C1O[C@@H](c2ccccc2)C[C@@H]1CN1CCOCC1 | > 100 | > 100 | > 100 | – | – | > 100 | > 100 | > 100 | > 100 | > 100 | > 100 | > 100 | > 100 | – |
| O=C1CCCN(c2ccccc2)N1 | – | > 100 | > 100 | > 100 | > 100 | > 100 | > 100 | – | > 100 | – | > 100 | > 100 | > 100 | – |
| N#CCCN(c1ccc(C=Nc2cccc([N+](=O)[O-])c2)cc1)S(=O)(=O)c1ccccc1 | > 100 | – | > 100 | – | > 100 | > 100 | > 100 | > 100 | – | > 100 | > 100 | > 100 | > 100 | – |
| COC(=O)C(=O)CC(=O)CCn1ncc(Cl)c(Cl)c1=O | 24.9 | 33.4 | 7.35 | 15.3 | 30.3 | 8.69 | 24.2 | 50.8 | 22 | 44.6 | 32.5 | 42.1 | 23.6 | – |
| Cc1ccccc1C(C#N)C(=O)C(=O)Nc1nc([N+](=O)[O-])cs1 (centres undefined) | > 100 | > 100 | > 100 | > 100 | – | > 100 | > 100 | > 100 | > 100 | > 100 | – | > 100 | > 100 | > 100 |
